In patent US20230086099A1, “COMBINATION THERAPY FOR TREATMENT OF CANCER AND CANCER METASTASIS” (ONA Therapeutics, S.L., priority 2020, published 2023):

B1: ONA-0: anti-CD36 antibody ONA-0 (also known as ONA-0-v1; as described in U.S. Patent Application No. 63/117,529) (antibody)
heavy: QVQLKQSGADLVRPGASVKLSCKASGYTFTDYYINWVKQRPGQGLEWIARIYPGSGNTYYNEKFKGKATLTAEKSSSTAYMQLSSLTSEDSAVYFCARGIGGGFGMDYWGQGTSVTVSSESARNPTIYPLTLPPVLCSDPVIIGCLIHDYFPFGTMNVTWGKSGKDITTVNFPPALASGGRYTMSSQLTLPAVECPEGESVKCSVQHDSNPVQELDVNCSPTPPPPITIPSCQPSLSLQRPALEDLLLGSDASITCTLNGLRNPEGAAFTWEPSTGKDAVQKKAAQNSCGCYSVSSVLPGCAERWNSGASFKCTVTHPESGTLTGTIAKVTVNTFPPQVHLLPPPSEELALNELLSLTCLVRAFNPKEVLVRWLHGNEELSPESYLVFEPLKEPGEGATTYLVTSVLRVSAETWKQGDQYSCMVGHEALPMNFTQKTIDRLSGKPTNVSVSVIMSEGDGICY
light: SIVMTQTPKFLLVSAGDRITITCKASQSVSDDVAWYQQKPGQSPKLLIYYASNRYTGVPDRFTGSGYGTDFTFTISTVQAEDLAVYFCQQDYSSPLTFGAGTKLEIKRADAAPTVSIFPPSSEQLTSGGASVVCFLNNFYPKDINVKWKIDGSERQNGVLNSWTDQDSKDSTYSMSSTLTLTKDEYERHNSYTCEATHKTSTSPIVKSFNRNEC

How the values were obtained:
[1] = test system: Detroit oral cancer cells; test: Detroit oral cancer cells inoculated in NSG mice: anti-CD36 antibody with cisplatin; assay type: in vivo; details: lung metastases from oral cancer, H&E staining of the lungs; FIGS. 2, 3A-3B
Protocol: (§1) Studies on the combination of anti-CD36 antibody with cisplatin were performed in NSG mice (immuno-deficient) males and females (first experiment mice directly bought, follow up experiments in house breeding) All mice were inoculated with commercially available oral cancer cells Ab dosing was always done daily i.p.
(§2) Two types of oral cancer cell lines were inoculated: • Detroit: “medium” metastatic and very large primary tumor • FaDu: “very strong” metastatic and small primary tumor
(§3) 50,000 or 100,000 cancer cells were inoculated. The starting time of treatment was the amount of days after inoculation of the cancer cells Ab treatment starts.

OVCAR-3 cells = test: OVCAR-3 orthotopic mouse model of ovarian cancer; assay type: in vivo, NSG mice
Protocol: Studies of the effects of the combination of ONA-0 anti-CD36 antibody and cisplatin on ovarian cancer were performed in NSG mice (immuno-deficient). The studies included only female mice. All mice were inoculated with commercially available OVCAR-3 (ATCC) cancer cells. OVCAR-3 cells were derived from a human progressive adenocarcinoma of the ovary (i.e., from an ovarian cancer). Prior to inoculation, the OVCAR-3 cells were cultured in a humidified incubator at 37° C. with 5% CO2, and were grown in RPMI-1640 supplemented with 5 μg ml^−1 penicillin/streptomycin, 0.01 mg/ml bovine insulin and 20% FBS (GIBCO). For each mouse, a piece of an OVCAR-3 xenograft was implanted orthotopically. Treatment of the implanted mice began 23 days after implantation with the OVCAR-3 tumor pieces. Inoculated mice were divided into one of two treatment groups: cisplatin injection control (n=9) or cisplatin in combination with ONA-0 treatment (n=8). Antibody treatments were administered via intraperitoneal (i.p.) injection daily at a dose of 3 mg/kg and cisplatin treatments were administered via intraperitoneal (i.p.) injection twice per week at a dose of 2 mg/kg (FIG. 7B). Mice were sacrificed at the end of the treatment period. Upon sacrifice, organs and tissues were collected for performance of immunohistochemistry analysis.

[2] = test system: FaDu cell line (oral cancer cell line); test: FaDu oral cancer cells inoculated in NSG mice: lymph node metastases, ONA-0 with cisplatin; assay type: in vivo
Protocol: as §1, §2, §3

Molecule	lung metastases, size and number [1]	SR positive area (collagenous and fibrotic areas) of primary tumors (OVCAR-3 cells; Sirius red staining, FIG. 9C)	primary tumor weight, average (OVCAR-3 cells; at sacrifice, FIG. 9B)	percent necrosis of primary tumors (OVCAR-3 cells; histology, blinded quantification by a pathologist, FIG. 9C)	percentage of mice with metastasis in the liver (OVCAR-3 cells; macroscopic, visual inspection, FIG. 8A)	percentage of animals with metastasis in the peritoneal wall (OVCAR-3 cells; macroscopic, visual inspection, ONA-0 3 mg/kg i.p. daily, cisplatin 2 mg/kg i.p. twice per week, FIG. 8A)	efficacy on lymph node metastases ([2]; study of FIGS. 4A-4E)	efficacy on lymph node metastasis ([2]; study of FIGS. 5A-5E and 6A-6B)
N.N.[Cl][Pt][Cl] [cisplatin]	reduces the size of metastases	27.45%	0.468 grams	approximately 14.2%	11%	22%		
B1							demonstrates efficacy on lymph node metastases	effective as a monotherapy
